From US20170304228A1, “NEW INDICATION OF CINACALCET HCL PHARMACEUTICAL COMPOSITION FOR TREATING CANCER” (LAUNX BIOMEDICAL CO., LTD., priority 2014, published 2017)
Structures can show the parent of a compound that is named as a salt. Where two headings read alike, the source gives them in different places.

Legend:
Type in all cases: cell-based
[1] = Cell viability analysis (WST-1), normal pulmonary epithelial cell line BEAS-2B; conditions: human, BEAS-2B cells (normal pulmonary epithelial cell line)
Text: Subculture the different types of cancer cells. The cancer cells includes lung cancer, gastric cancer, hepatic cancer, colon cancer, skin cancer, cervical cancer, prostate cancer, bladder cancer, breast cancer, leukemia, pancreatic cancer, ovarian cancer, tongue cancer, osteosarcoma, and renal cancer. The normal cells used in the control group included kidney cell (HEK293) and human bronchial epithelial cell line BEAS-2B (as shown in Table 1).
(§1) The cell numbers were counted and reseed as 2×10^6 in culture plate/flask. Then, the culture medium were added to a volume of 10 ml, and the cells were cultured for 2-3 days. Then, the cells were suspended for loading into 96-well plates. The number of cells was 3000 and the volume of the culture medium was 100 μl each well.
(§2) Removing the original culture medium from 96-well plate. Then add 100 μl of commercially drug at a concentration of 10 μM per well. After 72 hours, add the diluted WST-1 reagent to the well with 100 μl/well, and the diluted WST-1 reagent was acquired from the dilution of 9:1 medium and WST-1 stock reagent. Finally, the total volume of each well was 200 μl/well. Culture the 96-well plate at 37° C. for 30 to 90 minutes. Detecting and calculate the survival rate of each cancer cells with an ELISA reader at OD450 nm. The lower viability of cancer cells represents better inhibition effect via the Cinacalcet HCl drug. Otherwise, the higher viability of cancer cells represents worse inhibition effect via the Cinacalcet HCl drug.
(§3) This inhibition test of Cinacalcet HCl on normal cells were using normal kidney cell line HEK293 (Table 16), normal pulmonary epithelial cell lines […] BEAS-2B (Table 17). The inhibitory tests of Cinacalcet HCl were performed 4 times for each cell lines and then the average value of the inhibitory tests was calculated The results were shown in Tables 16 and Tables 17.

786-O = assay: Cell viability analysis (WST-1), 786-O; conditions: Homo sapiens
Experimental: as §1, §2
This inhibition test of Cinacalcet HCl on abdominal-related cancer cells were using bladder cancer cell line TSGH and T24 (Table 3), cervical cancer cell lines HeLa and C-33A (Table 4), renal cancer cell line 786-O (Table 5). The inhibitory tests of Cinacalcet HCl were performed 4 times for each cell lines and then the average value of the inhibitory tests was calculated.

BxPC-3 = assay: Cell viability analysis (WST-1), BxPC-3; conditions: Homo sapiens, read-out: survival rate (viability) of cells
Experimental: as §1, §2
(§4) This inhibition test of Cinacalcet HCl on gastrointestinal tract-related cancer cells were using gastric cancer cell lines AGS and MKN-45 (Table 9), hepatic cancer cell lines HepG2 and Hep3B (Table 10), colorectal cancer cell lines HCT116-wt and LoVo (Table 11), pancreatic cancer cell line AsPC-1 and BxPC-3(Table 12), tongue cancer cell line SAS (Table 13). The inhibitory tests of Cinacalcet HCl were performed 4 times for each cell lines and then the average value of the inhibitory tests was calculated.

ovarian cancer cells = assay: Summary of cell viability, ovarian cancer cells; conditions: 72 hours, read-out: Inhibitory effect
Experimental: as §1, §2
(§5) Cinacalcet HCl is having different inhibitory effect on different tumor cell type even in the same cancer. […] (FIG. 1)

MCF7 = assay: Cell viability analysis (WST-1), MCF7; conditions: Homo sapiens, read-out: survival rate (viability) of cells
Experimental: as §1, §2
This inhibition test of Cinacalcet HCl on endocrine-related cancer cells were using prostate cancer cell lines PC-3 and LNCap (Table 6), breast cancer cell lines MCF7 and MDA-MB-231 (Table 7), and ovarian cancer cell lines NIH-OVCAR-3 and TOV-21G (Table 8). The inhibitory tests of Cinacalcet HCl were performed 4 times for each cell lines and then the average value of the inhibitory tests was calculated.

LoVo = assay: Cell viability analysis (WST-1), LoVo; conditions: Homo sapiens, read-out: survival rate (viability) of cells
Experimental: as §1, §2, §4

[2] = Cell viability analysis (WST-1), normal kidney cell line HEK293; conditions: human, HEK293 cells (normal kidney cell line)
Experimental: as §1
as §2, with “Otherwise, the higher viability of cancer cells represents worse inhibition effect via the Cinacalcet HCl drug.” left out
as §3

colorectal cancer cells = assay: Summary of cell viability, colorectal cancer cells; conditions: 72 hours, read-out: Inhibitory effect
Experimental: as §1, §2, §5

[3] = average of tests, read-out: survival rate (viability) of cells

Work on C[C@@H](NCCCc1cccc(C(F)(F)F)c1)c1cccc2ccccc12 [Cinacalcet HCl, Cinacalcet hydrochloride] yielded a viability at 72 h, 10 µM [1, 3] of 76.1%, a viability at 72 h, 10 µM ([1]; summary, normal pulmonary epithelial cell line, read-out: Inhibitory effect) of 76.1% and a viability at 72 h, 10 µM ([1]; test 0510-10 min, read-out: survival rate (viability) of cells) of 70.5%. It also gave a viability at 72 h, 10 µM ([1]; test 0512-10 min, read-out: survival rate (viability) of cells) of 72.9%, a viability at 72 h, 10 µM ([1]; test 0515-10 min, read-out: survival rate (viability) of cells) of 72.2% and a viability at 72 h, 10 µM ([1]; test 0517-10 min, read-out: survival rate (viability) of cells) of 89%. For the same compound, the viability at 10 µM (786-O; 786-0, 10 μM, 72 hours, test 0524-10 min, read-out: survival rate (viability) of cells) was 81.3%, the viability at 10 µM (786-O; 786-0, 10 μM, 72 hours, test 0526-10 min, read-out: survival rate (viability) of cells) was 71.6% and the viability at 10 µM (786-O; 786-0, 10 μM, 72 hours, test 0529-10 min, read-out: survival rate (viability) of cells) was 80.2%. The viability at 10 µM (786-O; 786-0, 10 μM, 72 hours, test 0531-10 min, read-out: survival rate (viability) of cells) was 87.1%, the viability at 10 µM (786-O; 786-0, 72 h, 10 μM, average of tests, read-out: survival rate (viability) of cells) was 80% and the viability at 10 µM (786-O; 786-0, 72 h, summary, Kidney cancer, 10 μM, read-out: Inhibitory effect) was 87.5%. It also gave a viability at 10 µM (BxPC-3; BXPC-3, 10 μM, 72 hours, test 3-4-30 min) of 76.2%, a viability at 10 µM (BxPC-3; BXPC-3, 10 μM, 72 hours, test 3-7-3-30 min) of 64.6% and a viability at 10 µM (BxPC-3; BXPC-3, 10 μM, 72 hours, test 3-7-4-30 min) of 78.8%. The viability at 10 µM (BxPC-3; BXPC-3, 10 μM, 72 hours, test 3-7-7-30 min) was 100%, the viability at 10 µM (BxPC-3; BXPC-3, 72 h, 10 μM, Average of tests) was 79.9% and the viability at 10 µM (ovarian cancer cells) was 58.7%. The viability at 10 µM (MCF7; MCF7, 10 μM, 72 hours, test 0612-10 min) was 87.7%, the viability at 10 µM (MCF7; MCF7, 10 μM, 72 hours, test 0614-10 min) was 75.6% and the viability at 10 µM (MCF7; MCF7, 10 μM, 72 hours, test 0616-10 min) was 82.2%. The viability at 10 µM (MCF7; MCF7, 10 μM, 72 hours, test 0619-10 min) was 77.2%, the viability at 10 µM (MCF7; MCF7, 72 h, 10 μM, average of tests) was 80.7% and the viability at 10 µM (LoVo; 72 h, average of tests) was 93.4%. It also gave a viability at 10 µM (LoVo; 72 hours, test 0616-10 min) of 73.9%, a viability at 10 µM (LoVo; 72 hours, test 0619-10 min) of 125% and a viability at 10 µM (LoVo; 72 hours, test 0621-10 min) of 90.4%. For the same compound, the viability at 10 µM (LoVo; 72 hours, test 0623-10 min) was 84.2%, the viability at 72 h, 10 µM [2, 3] was 114% and the viability at 72 h, 10 µM ([2]; summary, kidney cell lines, read-out: Inhibitory effect) was 114%. For the same compound, the viability at 10 µM (colorectal cancer cells) was 74.4%.
